{
  "source": "ChEMBL document CHEMBL5104089",
  "about": "“An update into the medicinal chemistry of translocator protein (TSPO) ligands” (Eur J Med Chem, 2021)",
  "key": {"Translocator protein [1]": {"molecular_target": "T1, Translocator protein (Homo sapiens, UniProt P30536)", "T1 sequence (P30536 whole entry)": "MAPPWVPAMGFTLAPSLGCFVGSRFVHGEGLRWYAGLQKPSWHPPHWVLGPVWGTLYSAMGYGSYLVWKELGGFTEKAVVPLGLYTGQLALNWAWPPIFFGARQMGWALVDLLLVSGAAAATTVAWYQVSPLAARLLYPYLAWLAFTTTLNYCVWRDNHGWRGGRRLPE", "experiment": "Inhibition of TSPO (unknown origin) in mouse MA-10 cells assessed as increase in steroid steroidogenesis"}, "[2]": {"experiment": "Stability of the compound in human serum assessed as intact compound level measured after 24 hrs by iTLC-SG analysis", "format": "ADME, cell-free", "conditions": "read-out: Stability"}, "[3]": {"experiment": "Stability of the compound assessed as intact compound level measured after 24 hrs by iTLC-SG analysis", "format": "physicochemical", "conditions": "read-out: Stability"}, "[4]": {"experiment": "Displacement of [3H]flunitrazepam from CBR receptor in rat brain cerebral cortex by liquid scintillation spectrometer method", "format": "tissue-based"}, "[5]": {"experiment": "Binding affinity to CBR (unknown origin)", "parameters": "species or system Homo sapiens"}, "Translocator protein [6]": {"molecular_target": "T1, Translocator protein", "experiment": "Inhibition of TSPO receptor (unknown origin)"}, "[7]": {"experiment": "Lipophilicity, logD of the compound in 1-octanol and phosphate buffer in pH 7.4 incubated for 3 mins", "format": "physicochemical", "conditions": "1-octanol/phosphate buffer"}, "Translocator protein [8]": {"molecular_target": "T2, Translocator protein (Rattus norvegicus, UniProt P16257)", "T2 sequence (P16257 whole entry, looked up)": "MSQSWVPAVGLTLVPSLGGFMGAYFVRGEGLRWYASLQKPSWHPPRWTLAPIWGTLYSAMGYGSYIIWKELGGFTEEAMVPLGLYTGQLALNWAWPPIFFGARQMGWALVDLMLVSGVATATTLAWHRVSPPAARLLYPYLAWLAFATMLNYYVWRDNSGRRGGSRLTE", "experiment": "Displacement of [3H]-flunitrazepam from TSPO receptor in Wistar rat brain without cerebellum incubated for 90 mins by liquid scintillation counter analysis", "format": "tissue-based"}, "[9]": {"experiment": "Selectivity ratio of Ki for CBR (unknown origin) to Ki for TSPO receptor in Wistar rat brain"}, "Translocator protein [10]": {"molecular_target": "T2, Translocator protein", "experiment": "Displacement of [3H]-PK11195 from TSPO receptor in rat heart microsomes incubated for 15 mins by scintillation method", "parameters": "species or system Microsome"}, "[11]": {"experiment": "Displacement of [3H]-Ro51788 from CBR receptor in rat brain microsomes incubated for 60 mins by scintillation method", "parameters": "species or system Microsome"}, "Translocator protein [12]": {"molecular_target": "T2, Translocator protein", "experiment": "Displacement of [3H]-Ro54864 from TSPO receptor in rat heart microsomes incubated for 45 mins by scintillation method", "parameters": "species or system Microsome"}, "Translocator protein [13]": {"molecular_target": "T1, Translocator protein", "experiment": "Displacement of [3H]-PK11195 from TSPO receptor in human Leucocyte incubated for 30 mins by beta-counter analysis", "format": "cell-based"}, "[14]": {"experiment": "Lipophilicity, logD of the compound", "format": "physicochemical", "conditions": "octanol/water"}, "Translocator protein [15]": {"molecular_target": "T1, Translocator protein", "experiment": "Binding affinity to TSPO (unknown origin) relative to control", "conditions": "tested as the 11C-labelled form"}, "Translocator protein [16]": {"molecular_target": "T2, Translocator protein", "experiment": "Binding affinity to TSPO in Sprague-Dawley rat brain", "format": "tissue-based"}, "Translocator protein [17]": {"molecular_target": "T2, Translocator protein", "experiment": "Displacement of [3H]-PK11195 from TSPO receptor in Sprague-Dawley rat brain incubated for 30 mins by […] analysis", "format": "tissue-based"}, "[18]": {"experiment": "Lipophilicity, logD of the compound in 1-octanol and phosphate buffer in pH 7.4 incubated for 3 mins by shake flask method", "format": "physicochemical", "conditions": "1-octanol/phosphate buffer"}},
  "data": [
    {"smiles": "CCCN(CCC)C(=O)Cc1c(-c2ccc(Cl)cc2)nc2c(NCC(=O)O)cccn12", "values": [
      {"measurement": "EC50", "setting": "Translocator protein [1]", "value": 21200, "unit": "nM"}
    ]},
    {"smiles": "COC(=O)C(Cc1c[nH]c2ccccc12)NC(=O)Cn1c(=O)oc2ccc(Br)cc21", "note": "(configuration not stated)", "values": [
      {"measurement": "remaining at 24 h", "setting": "[2]", "value": "> 91", "unit": "%"},
      {"measurement": "remaining at 24 h", "setting": "[3]", "value": "> 94", "unit": "%"}
    ]},
    {"smiles": "CC(=O)N(Cc1ccccc1OC(C)C)c1ccc(Cl)cc1Oc1ccccc1", "values": [
      {"measurement": "IC50", "setting": "[4]", "value": "> 1000", "unit": "nM"}
    ]},
    {"smiles": "CCCN(CCC)C(=O)Cc1c(-c2ccc(OCC(=O)O)cc2)nc2c(Cl)cc(Cl)cn12", "values": [
      {"measurement": "EC50", "setting": "Translocator protein [1]", "value": 39000, "unit": "nM"}
    ]},
    {"smiles": "CN1C(=O)CN=C(c2ccccc2F)c2cc([N+](=O)[O-])ccc21", "note": "[FLUNITRAZEPAM]", "values": [
      {"measurement": "Ki", "setting": "[5]", "value": 5.11, "unit": "nM"}
    ]},
    {"smiles": "CC(=O)N(C)c1ccccc1Oc1ccccc1", "values": [
      {"measurement": "IC50", "setting": "Translocator protein [6]", "value": 6.7, "unit": "nM"}
    ]},
    {"smiles": "CC(=O)N(Cc1ccccc1OC[18F])c1cnccc1Oc1ccccc1", "values": [
      {"measurement": "logD at 0.05 h", "setting": "[7]", "value": 2.85}
    ]},
    {"smiles": "CCCN(CCC)C(=O)Cc1c(-c2ccc(Cl)cc2)nc2c(Cl)cc(Cl)cn12", "note": "[ALPDEM]", "values": [
      {"measurement": "EC50", "setting": "Translocator protein [1]", "value": 337, "unit": "nM"}
    ]},
    {"smiles": "CCCN(CCC)C(=O)Cc1c(-c2ccc(OC)cc2)nc2ccc(Cl)cn12", "values": [
      {"measurement": "EC50", "setting": "Translocator protein [1]", "value": 15900, "unit": "nM"},
      {"measurement": "Ki", "setting": "Translocator protein [8]", "value": 0.5, "unit": "nM"},
      {"measurement": "Ratio Ki", "setting": "[9]", "value": 210},
      {"measurement": "Ki", "setting": "[5]", "value": 105, "unit": "nM"}
    ]},
    {"smiles": "CCN(CC)C(=O)Cn1c(=O)n2nc(-c3ccccc3)nc2c2ccccc21", "values": [
      {"measurement": "IC50", "setting": "Translocator protein [10]", "value": 1700, "unit": "nM"}
    ]},
    {"smiles": "CCN(CC)C(=O)Cn1c(=O)n2cc(-c3ccccc3)nc2c2ccccc21", "values": [
      {"measurement": "IC50", "setting": "[11]", "value": "> 10000", "unit": "nM"},
      {"measurement": "IC50", "setting": "Translocator protein [10]", "value": 400, "unit": "nM"},
      {"measurement": "IC50", "setting": "Translocator protein [12]", "value": 80, "unit": "nM"}
    ]},
    {"smiles": "CC(=O)N(Cc1ccccc1O[11CH3])c1cnccc1Oc1ccccc1", "values": [
      {"measurement": "IC50", "setting": "Translocator protein [13]", "value": 8.07, "unit": "nM"},
      {"measurement": "logD at 0.05 h", "setting": "[7]", "value": 2.82}
    ]},
    {"smiles": "COc1ccc(-c2ccc3oc(=O)n(CC(=O)N(C)c4ccccc4)c3c2)cc1", "values": [
      {"measurement": "logD", "setting": "[14]", "value": 3.5}
    ]},
    {"smiles": "CCN(CC)C(=O)Cn1c(=O)n2cc(-c3ccc(OC)c(OC)c3)nc2c2ccccc21", "values": [
      {"measurement": "IC50", "setting": "[11]", "value": "> 10000", "unit": "nM"},
      {"measurement": "IC50", "setting": "Translocator protein [10]", "value": 150, "unit": "nM"},
      {"measurement": "IC50", "setting": "Translocator protein [12]", "value": 500, "unit": "nM"}
    ]},
    {"smiles": "CCCN(CCC)C(=O)Cn1c(=O)n2cc(-c3ccccc3)nc2c2ccccc21", "values": [
      {"measurement": "IC50", "setting": "[11]", "value": "> 10000", "unit": "nM"},
      {"measurement": "IC50", "setting": "Translocator protein [10]", "value": 11, "unit": "nM"},
      {"measurement": "IC50", "setting": "Translocator protein [12]", "value": 12, "unit": "nM"}
    ]},
    {"smiles": "CCCN(CCC)C(=O)Cc1c(-c2ccc(Cl)cc2)nc2ccc(Cl)cn12", "note": "[ALPIDEM]", "values": [
      {"measurement": "Ki", "setting": "Translocator protein [8]", "value": 7.9, "unit": "nM"},
      {"measurement": "Ratio Ki", "setting": "[9]", "value": 3.29},
      {"measurement": "Ki", "setting": "[5]", "value": 1, "unit": "nM"}
    ]},
    {"smiles": "COc1ccc(OC)c(CN(C(C)=O)c2cc(F)ccc2Oc2ccccc2)c1", "values": [
      {"measurement": "Activity", "setting": "Translocator protein [15]", "value": 80, "unit": "%"},
      {"measurement": "IC50", "setting": "Translocator protein [6]", "value": 0.28, "unit": "nM"},
      {"measurement": "IC50", "setting": "[4]", "value": "> 1000", "unit": "nM"}
    ]},
    {"smiles": "CCCN(CCC)C(=O)Cc1c(-c2ccc(OC)cc2)nc2c(Cl)cc(Cl)cn12", "values": [
      {"measurement": "EC50", "setting": "Translocator protein [1]", "value": 571, "unit": "nM"}
    ]},
    {"smiles": "CCC(C)N(C)C(=O)c1cc2ccccc2c(-c2ccccc2Cl)n1", "note": "(configuration not stated) [PK-11195]", "values": [
      {"measurement": "Ki", "setting": "[5]", "value": "> 100000", "unit": "nM"}
    ]},
    {"smiles": "Oc1nc2ccccc2c2nc(-c3ccccc3)nn12", "values": [
      {"measurement": "IC50", "setting": "Translocator protein [10]", "value": 9800, "unit": "nM"},
      {"measurement": "IC50", "setting": "Translocator protein [12]", "value": 15, "unit": "nM"}
    ]},
    {"smiles": "CN(C(=O)Cn1c(=O)oc2ccc(-c3cccc([N+](=O)[O-])c3)cc21)c1ccccc1O[11CH3]", "values": [
      {"measurement": "Ki", "setting": "Translocator protein [16]", "value": 4.9, "unit": "nM"},
      {"measurement": "logD", "setting": "[14]", "value": 2.08}
    ]},
    {"smiles": "CCN(CC)C(=O)Cn1c(=O)n2c(C)c(-c3ccccc3)nc2c2ccccc21", "values": [
      {"measurement": "IC50", "setting": "[11]", "value": "> 10000", "unit": "nM"},
      {"measurement": "IC50", "setting": "Translocator protein [10]", "value": 29, "unit": "nM"},
      {"measurement": "IC50", "setting": "Translocator protein [12]", "value": 9, "unit": "nM"}
    ]},
    {"smiles": "CCCN(CCC)C(=O)Cc1c(-c2ccc(O)cc2)nc2ccc(Cl)cn12", "values": [
      {"measurement": "EC50", "setting": "Translocator protein [1]", "value": 6990, "unit": "nM"},
      {"measurement": "Ki", "setting": "Translocator protein [8]", "value": 22.2, "unit": "nM"},
      {"measurement": "Ratio Ki", "setting": "[9]", "value": 21.1},
      {"measurement": "Ki", "setting": "[5]", "value": 1.05, "unit": "nM"}
    ]},
    {"smiles": "CN(C(=O)Cn1c(=O)oc2ccc(-c3ccc(OCC[18F])cc3)cc21)c1ccccc1", "values": [
      {"measurement": "Ki", "setting": "Translocator protein [17]", "value": 6.6, "unit": "nM"},
      {"measurement": "logD at 0.05 h", "setting": "[18]", "value": 3.43}
    ]}
  ]
}
